Measurements published in patent publication US11357778B2, “Antagonist of the fibroblast growth factor receptor 3 (FGFR3) for use in the treatment or the prevention of skeletal disorders linked with abnormal activation of FGFR3” (INSTITUT NATIONAL DE LA SANTE ET DE LE RECHERCHE MEDICALE …, priority 2011, dated 2022).

Legend:
[1] = system: Fgfr3^Y367C/+ growth plate; experiment: Histology of cultured femur growth plate (HES staining, type X collagen in situ hybridization); format: cell-based, mouse
Method: Limb explants were fixed after culture in 4% paraformaldehyde at 4° C., and placed in a staining solution for 45-60 minutes (0.05% Alizarin Red, 0.015% Alcian Blue, 5% acetic acid in 70% ethanol) or embedded in paraffin. Serial […] were stained with Hematoxylin-Eosin using standard protocols for histological analysis or were subjected to in situ hybridization or immunohistochemical staining. In situ hybridization using [S35]-UTP labeled antisense ribopropes for collagen X was carried out as previously described (Delezoide et al., Hum Mol Genet, 6, 1899-1906, 1997). Sections were counterstained with Hematoxylin. For immunohistochemistry, sections were stained with antibodies specific to FGFR3 (1:250 dilution; Sigma), anti PCNA (1:1000 dilution; Abcam), anti-KI67 (1:300; Abcam), anti-cyclin D1 (1:80 dilution; Santa Cruz) and anti-p57 (1:100 dilution; Santa Cruz) using the Dako Envision kit. Images were captured with an Olympus PD70-IX2-UCB microscope. […] The inventors evaluated the impact of A31 on the growth plate (FIG. 4A). […] Histological examinations using HES staining (FIG. 10A) and type X collagen labeling (FIG. 10B) were also carried out.

[2] = system: Fgfr3^Y367C/+ mouse growth plates; experiment: Proliferation markers and cell cycle regulators in growth plates (immunohistochemistry, PCNA quantification); format: cell-based
Method: In situ hybridization using [S35]-UTP labeled antisense ribopropes for collagen X was carried out as previously described (Delezoide et al., Hum Mol Genet, 6, 1899-1906, 1997). Sections were counterstained with Hematoxylin. For immunohistochemistry, sections were stained with antibodies specific to FGFR3 (1:250 dilution; Sigma), anti PCNA (1:1000 dilution; Abcam), anti-KI67 (1:300; Abcam), anti-cyclin D1 (1:80 dilution; Santa Cruz) and anti-p57 (1:100 dilution; Santa Cruz) using the Dako Envision kit. Images were captured with an Olympus PD70-IX2-UCB microscope.
Three observers counted PCNA-positive and negative chondrocytes in proliferative […], prehypertrophic (PH) and hypertrophic (H) zones of the growth plate. A Student's t-test was used to compare treated (A31) and untreated femurs. Imagine software cellSens (Olympus) was used for counting cells. A p-value<0.05 is considered significant.
The inventors noted a higher expression of PCNA than KI67 in the mutant growth plate. Furthermore, the inventors investigated whether the presence of mutated Fgfr3 caused an impairment of expression of cell cycle regulators. In fact, activated Fgfr3 induced a significant overexpression of cyclin D1 in the proliferative and PH chondrocytes of Fgfr3^Y367C/+ mice. […] The inventors further analyzed the level of CDK inhibitors (CDKIs) negatively regulating the cell cycle, particularly p57, a member of the Cip/Kip family. Activated Fgfr3 induced a higher expression of p57 predominantly in late proliferative and PH chondrocytes. […] The inventors conclude that activated FGFR3 leads to over-expression of markers of proliferation (PCNA, KI67) and cell cycle regulators (cyclin D1 and p57) particularly in the prehypertrophic zone.

[3] = A31-treated Fgfr3^Y367C/+ growth plates

Compound: COc1cc(OC)cc(-c2cc3cnc(NCc4cn(CC5CCCN(C)C5)nn4)nc3nc2NC(=O)NC(C)(C)C)c1 (centres unmarked) [Compound A31]
- size of the hypertrophic zone of the growth plate ([1]; A31, Fgfr3^Y367C/+ femur explants): marked expansion of the hypertrophic zone
- type X collagen expression (in situ hybridization) ([1]; A31, Fgfr3^Y367C/+ growth plates): enhanced type X collagen expression
- chondrocyte morphology ([1]; A31, data not shown): enlarged and more spherical
- PCNA positive cells, hypertrophic (H) zone [2, 3]: 18%
- PCNA positive cells, prehypertrophic (PH) zone [2, 3]: 20%
- p57 protein expression in growth plate ([2]; A31, PH zone, data not shown): reduced expression of p57 protein
- KI67 expression in growth plates ([2]; A31, data not shown): decreased this expression
- cyclin D1 expression in mutant femurs (immunohistochemistry) ([2]; A31, data not shown): returned cyclin D1 expression to control levels
